# How the values were obtained:
# Assay type in all cases: in vivo
# creeping bentgrass green = assay: Soil moisture of creeping bentgrass green, ABA and trinexapac-ethyl (Example 8); details: 500 ppm ABA
# Method: (§1) Field studies were conducted at the nursery green or the practice green at Countryside golf course (Mundelein, Ill.). Both greens were sand based and growing Penncross creeping bentgrass. Grass was managed with typical Illinois golf course management practices.
# (§2) Chemical solutions were prepared with distilled water. Tween 20 (0.05% v/v) was used as an, adjuvant. Both trinexapac-ethyl (commercial product Primo Maxx, 11.3% active ingredient) and paclobutrazol (commercial product Trimmit 2SC, 22.3% active ingredient) were purchased from Syngenta Crop Protection Inc. (Greensboro, N.C.). Uniconazole-P (commercial product Sumagic, 0.55% active ingredient) was obtained from Valent U.S.A. Corporation (Walnut Creek, Calif.).
# (§3) When treated with paclobutrazol or uniconazole-P, turfgrass received irrigation within 24 hours after application to flush chemicals to the root zone. After treatment, turfgrasses were arranged in a randomized complete block experimental design. Turfgrass quality, turfgrass height or clip fresh weight was measured on assigned dates. Turfgrass quality was visually rated on a 0-9 scale based on the color, uniformity and density of the grass with 0 as the worst and 9 as the best. Turfgrass height was measured as the distance between canopy surface and soil. Clips were collected from each plot; all plots were cut to a uniform height.
# (§4) All experiments were randomized complete block experimental design. Data were analyzed by analysis of variance. Duncan's new multiple range tests at α=0.05 were used for mean separations.
# (§5) Tween 20 (0.05% w/v) was included as an adjuvant.
# creeping bentgrass = assay: Golf course green creeping bentgrass height, ABA and trinexapac-ethyl (Example 4); details: 200 ppm ABA
# Method: as §1, §2, §3, §4, §5
# Kentucky bluegrass = assay: Greenhouse Kentucky bluegrass height and quality, ABA and trinexapac-ethyl (Example 1); details: 200 ppm ABA
# Method: Greenhouse studies were conducted at the Research Farm of Valent BioSciences Corporation (Long Grove, Ill.). Grasses were grown in pots (18 cm in diameter and 18 cm in height) filled with Promix BX (available from Premier Horticulture Inc. Quakertown, Pa.). Grass was irrigated daily by an overhead irrigation system. The irrigation system was set up with multiple Tornado Mist Spray Heads (10 GPH at 40 PSI-Wetted diameter, NDS/Raindrip, Woodland Hills, Calif.). Spray heads were 1-meter apart from each other and 75 cm above grass canopy. Grass was cut with a scissor at 2.5 cm height and fertilizer (1 g/L all purpose fertilizer 20-20-20, available from The Scotts Company, Marysville, Ohio) was applied once per week.
# as §2, §3, §4
# Kentucky bluegrass sod (unknown variety) was purchased from Deak sod farms, Inc. (Union Grove, Wis.). Grass was grown in the greenhouse in pots (n=6 pots per treatment) for establishment before treatment. […] Tween 20 (0.05% w/v) was included as an adjuvant. Turfgrass canopy was not cut during the experimental period.
# [1] = tested on: tomato (variety: Rutgers); assay: Tomato plant height, growth rate and leaf number (Example 9); details: for Leaf number: 15 days after treatment
# Source text: (§6) Tomato (variety: Rutgers) seeds were sown in 18-cell flat filled with Promix PGX (available from Premier Horticulture Inc. Quakertown, Pa.) and grown for 3 weeks to allow for germination and initial growth. Plants were then transplanted into pots (18 cm in diameter and 18 cm in height), filled with Promix BX (available from Premier Horticulture Inc. Quakertown, Pa.), and grown for one week before the chemical treatment. Plants received daily irrigation and weekly fertilizer (1 g/L all purpose fertilizer 20-20-20, available from The Scotts Company, Marysville, Ohio).
# (§7) During the chemical treatment, a 15 mL (2.5 mL/plant) solution was foliar sprayed on the tomato canopy. Leaf transpiration rates were measured using a LI-1600 Steady State Porometer (LI-Cor, Lincoln, Nebr.) at 1, 2, 3, 4, 7, 10 and 15 days after treatment. Leaf transpiration rate was normalized to the percentage of control plant to minimize the experimental errors caused by environmental factors. Plant height was measured at 0, 2, 4, 7, 10 and 15 days after treatment. Growth rate was calculated based on the changes of plant height in certain intervals. The plants were harvested and the leaf number was counted at 15 days after treatment.
# [2] = tested on: tomato (variety: Rutgers); assay: Tomato leaf transpiration, porometer (Example 9)
# Source text: as §6, §7
# [3] = 250 ppm ABA, day 2 after treatment
# [4] = 250 ppm ABA, day 4 after treatment
# [5] = 250 ppm ABA, day 7 after treatment
# [6] = 250 ppm ABA, day 10 after treatment
# [7] = 250 ppm ABA, day 15 after treatment
# [8] = 500 ppm ABA, day 2 after treatment
# [9] = 500 ppm ABA, day 4 after treatment
# [10] = 500 ppm ABA, day 7 after treatment
# [11] = 500 ppm ABA, day 10 after treatment
# [12] = 500 ppm ABA, day 15 after treatment
# [13] = 1000 ppm ABA, day 2 after treatment
# [14] = 1000 ppm ABA, day 4 after treatment
# [15] = 1000 ppm ABA, day 7 after treatment
# [16] = 1000 ppm ABA, day 10 after treatment
# [17] = 1000 ppm ABA, day 15 after treatment
# [18] = 2000 ppm ABA, day 2 after treatment
# [19] = 2000 ppm ABA, day 4 after treatment
# [20] = 2000 ppm ABA, day 7 after treatment
# [21] = 2000 ppm ABA, day 10 after treatment
# [22] = 2000 ppm ABA, day 15 after treatment
substance,measurement,setting,value
S-abscisic acid [ABA],Soil moisture,creeping bentgrass green; 2 days after treatment,11.4%
same,Soil moisture,creeping bentgrass green; 7 days after treatment,10.9%
same,Turfgrass height,creeping bentgrass; 7 days after treatment,5.3 cm
same,Turfgrass height,creeping bentgrass; 14 days after treatment,8.2 cm
same,Turfgrass height,Kentucky bluegrass; 7 days after treatment,9.4 cm
same,Turfgrass height,Kentucky bluegrass; 23 days after treatment,19.0 cm
same,Leaf number,[1]; 250 ppm ABA,12.2
same,Plant height,"[1]; 250 ppm ABA, day 0 after treatment",9.9 cm
same,Growth rate,[1]; [3],1.5 cm/day
same,Plant height,[1]; [3],12.8 cm
same,Growth rate,[1]; [4],1.6 cm/day
same,Plant height,[1]; [4],16.3 cm
same,Growth rate,[1]; [5],2.7 cm/day
same,Plant height,[1]; [5],28.5 cm
same,Growth rate,[1]; [6],2.1 cm/day
same,Plant height,[1]; [6],30.4 cm
same,Growth rate,[1]; [7],2.3 cm/day
same,Plant height,[1]; [7],45.5 cm
same,Leaf number,[1]; 500 ppm ABA,12.0
same,Plant height,"[1]; 500 ppm ABA, day 0 after treatment",10.1 cm
same,Growth rate,[1]; [8],1.3 cm/day
same,Plant height,[1]; [8],12.5 cm
same,Growth rate,[1]; [9],1.6 cm/day
same,Plant height,[1]; [9],16.3 cm
same,Growth rate,[1]; [10],2.4 cm/day
same,Plant height,[1]; [10],27.0 cm
same,Growth rate,[1]; [11],2.0 cm/day
same,Plant height,[1]; [11],29.6 cm
same,Growth rate,[1]; [12],2.3 cm/day
same,Plant height,[1]; [12],44.1 cm
same,Leaf number,[1]; 1000 ppm ABA,12.0
same,Plant height,"[1]; 1000 ppm ABA, day 0 after treatment",9.8 cm
same,Growth rate,[1]; [13],1.0 cm/day
same,Plant height,[1]; [13],11.7 cm
same,Growth rate,[1]; [14],1.2 cm/day
same,Plant height,[1]; [14],14.5 cm
same,Growth rate,[1]; [15],2.2 cm/day
same,Plant height,[1]; [15],25.3 cm
same,Growth rate,[1]; [16],1.8 cm/day
same,Plant height,[1]; [16],27.4 cm
same,Growth rate,[1]; [17],2.0 cm/day
same,Plant height,[1]; [17],41.6 cm
same,Leaf number,[1]; 2000 ppm ABA,12.0
same,Plant height,"[1]; 2000 ppm ABA, day 0 after treatment",9.8 cm
same,Growth rate,[1]; [18],0.9 cm/day
same,Plant height,[1]; [18],11.5 cm
same,Growth rate,[1]; [19],1.3 cm/day
same,Plant height,[1]; [19],14.9 cm
same,Growth rate,[1]; [20],1.9 cm/day
same,Plant height,[1]; [20],23.2 cm
same,Growth rate,[1]; [21],1.6 cm/day
same,Plant height,[1]; [21],25.8 cm
same,Growth rate,[1]; [22],1.9 cm/day
same,Plant height,[1]; [22],40.5 cm
same,Transpiration,"[2]; 250 ppm ABA, day 1 after treatment",87 % of control
same,Transpiration,[2]; [3],86 % of control
same,Transpiration,"[2]; 250 ppm ABA, day 3 after treatment",91 % of control
same,Transpiration,[2]; [4],95 % of control
same,Transpiration,[2]; [5],99 % of control
same,Transpiration,[2]; [6],98 % of control
same,Transpiration,[2]; [7],99 % of control
same,Transpiration,"[2]; 500 ppm ABA, day 1 after treatment",78 % of control
same,Transpiration,[2]; [8],78 % of control
same,Transpiration,"[2]; 500 ppm ABA, day 3 after treatment",84 % of control
same,Transpiration,[2]; [9],88 % of control
same,Transpiration,[2]; [10],98 % of control
same,Transpiration,[2]; [11],99 % of control
same,Transpiration,[2]; [12],99 % of control
same,Transpiration,"[2]; 1000 ppm ABA, day 1 after treatment",60 % of control
same,Transpiration,[2]; [13],73 % of control
same,Transpiration,"[2]; 1000 ppm ABA, day 3 after treatment",76 % of control
same,Transpiration,[2]; [14],84 % of control
same,Transpiration,[2]; [15],93 % of control
same,Transpiration,[2]; [16],99 % of control
same,Transpiration,[2]; [17],97 % of control
same,Transpiration,"[2]; 2000 ppm ABA, day 1 after treatment",46 % of control
same,Transpiration,[2]; [18],58 % of control
same,Transpiration,"[2]; 2000 ppm ABA, day 3 after treatment",70 % of control
same,Transpiration,[2]; [19],76 % of control
same,Transpiration,[2]; [20],85 % of control
same,Transpiration,[2]; [21],95 % of control
same,Transpiration,[2]; [22],100 % of control
